Reference: PMC7921117, “Structural characterization of the microbial enzyme urocanate reductase mediating imidazole propionate production” (Nature Communications, 2021)

How the values were obtained:
[1] = biological target: T1, UrdA′ (two-domain UrdA) (Shewanella oneidensis, UniProt Q8CVD0); assay: X-ray structure ([…] Å); assay type: binding; conditions: no substrate bound; sulfate in active site; FAD also in 6T87 and 6T88
T1 construct: clamp and FAD domains, residues 130-582, C-terminal 6xHis kept, N-terminal FMN domain absent; E. coli TUNER(DE3) (mutants BL21(DE3)); mostly monomer

[2] = biological target: T1, UrdA′ (two-domain UrdA); assay: X-ray structure ([…] Å); activity inhibition; conditions: ADP in the FAD-binding site; no urocanate bound, glycerol in substrate site

T1 sequence (Q8CVD0 130-582): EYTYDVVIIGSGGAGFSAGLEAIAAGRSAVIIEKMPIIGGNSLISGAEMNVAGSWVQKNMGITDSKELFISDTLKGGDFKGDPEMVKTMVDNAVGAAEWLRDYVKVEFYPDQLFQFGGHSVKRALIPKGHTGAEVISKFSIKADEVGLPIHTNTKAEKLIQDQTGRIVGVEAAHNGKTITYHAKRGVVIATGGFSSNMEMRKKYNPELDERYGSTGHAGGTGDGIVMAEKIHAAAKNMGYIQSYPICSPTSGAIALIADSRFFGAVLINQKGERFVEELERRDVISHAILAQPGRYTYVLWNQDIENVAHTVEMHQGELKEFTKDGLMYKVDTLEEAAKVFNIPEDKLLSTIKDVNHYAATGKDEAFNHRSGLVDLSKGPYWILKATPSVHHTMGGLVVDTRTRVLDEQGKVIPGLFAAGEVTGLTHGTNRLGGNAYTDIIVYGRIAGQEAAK

Compound | X-ray structure (2.56 Å) [1] | X-ray structure (1.1 Å); activity inhibition [2]
Cc1cc2nc3c(=O)[nH]c(=O)nc-3n(C[C@H](O)[C@H](O)[C@H](O)COP(=O)(O)OP(=O)(O)OC[C@H]3O[C@@H](n4cnc5c(N)ncnc54)[C@H](O)[C@@H]3O)c2cc1C [FAD] | 6T86 for apo-FAD, 6T87 for uro-FAD, and 6T88 for imp-FAD | –
Nc1ncnc2c1ncn2[C@@H]1O[C@H](COP(=O)(O)OP(=O)(O)O)[C@@H](O)[C@H]1O [ADP] | – | supported by the ADP-induced inhibition of UrdA′ activity
